For 38 compounds, melting point, suppression of infestation and curative action results are on record in US6420423B1 (priority 1995, dated 2002).

Series [1] deals with Phytophthora infestans. The format is in vivo. As to conditions: 20 ppm of the active substance; test a) or b) not distinguished.
The subject of series [2] is Plasmopara viticola. As to conditions: 20 ppm of the active substance, vines.

`CCO/N=C(/C(C)=NOCc1ccccc1C(=NOC)C(=O)OC)c1ccc(OCc2cccc(C(F)(F)F)c2)cc1` displayed a melting point of 68 to 70 °C.
On to `CCCCOc1ccc(C(=NOC)C(C)=NOCc2ccccc2C(=COC)C(=O)OC)cc1` (mixture of isomers) [Compound 1.33], for which the suppression of infestation entry in series [1] is reported as “completely suppressed”. The curative action entry in series [2] is recorded as “complete curative action”.
For `COC=C(C(=O)OC)c1ccccc1CON=C(C)C(=NOC)c1ccc(OCC2CC2(Cl)Cl)c(F)c1` (single isomer, unassigned) [Compound 1.4], in that order: “completely suppressed” and “complete curative action”.
As for `COC=C(C(=O)OC)c1ccccc1CON=C(C)C(=NOC)c1ccc(OCC2CC2(Cl)Cl)c(Cl)c1` (single isomer, unassigned) [Compound 1.19], the suppression of infestation entry in series [1] is on record as “completely suppressed”.
Same read-out and setting: the same measure for `COC=C(C(=O)OC)c1ccccc1CON=C(C)C(=NOC)c1ccc(OCC2CC2(Cl)Cl)c(Cl)c1` (single isomer, unassigned) [Compound 1.20]: “completely suppressed”.
As for `CCC(C)Oc1ccc(C(=NOC)C(C)=NOCc2ccccc2C(=COC)C(=O)OC)cc1` (single isomer, unassigned) [Compound 1.29], the curative action result in series [2] is recorded as “complete curative action”.
For the compound `CCC(C)Oc1ccc(C(=NOC)C(C)=NOCc2ccccc2C(=COC)C(=O)OC)cc1` (single isomer, unassigned) [Compound 1.30], the suppression of infestation entry in series [1] is “completely suppressed”. The curative action result in series [2] is recorded as “complete curative action”.
In the case of `COC=C(C(=O)OC)c1ccccc1CON=C(C)C(=NOC)c1cc(F)ccc1C` (single isomer, unassigned) [Compound 1.52], the curative action entry in series [2] is on record as “complete curative action”.
Same read-out and setting: the same measure for `CCCOc1ccc(C(=NOC)C(C)=NOCc2ccccc2C(=COC)C(=O)OC)c(F)c1` (single isomer, unassigned) [Compound 1.63B]: “complete curative action”; for `CCCCOc1ccc(C(=NOC)C(C)=NOCc2ccccc2C(=COC)C(=O)OC)c(F)c1` (single isomer, unassigned) [Compound 1.71A]: “complete curative action”.
Consider `CCCCOc1ccc(C(=NOC)C(C)=NOCc2ccccc2C(=COC)C(=O)OC)c(F)c1` (single isomer, unassigned) [Compound 1.71B], for which, in series [2], the curative action result is listed as “complete curative action”.
As to `COC=C(C(=O)OC)c1ccccc1CON=C(C)C(=NOC)c1ccc(OC(C)C)cc1F` (single isomer, unassigned) [Compound 1.73A], the curative action result in series [2] is listed as “complete curative action”.
On the same count and under the same terms, the same measure for `COC=C(C(=O)OC)c1ccccc1CON=C(C)C(=NOC)c1ccc(OC(C)C)cc1F` (single isomer, unassigned) [Compound 1.73B]: “complete curative action”.
Consider `CCC(C)Oc1ccc(C(=NOC)C(C)=NOCc2ccccc2C(=COC)C(=O)OC)c(F)c1` (single isomer, unassigned) [Compound 1.75A], for which the suppression of infestation result in series [1] was “completely suppressed”.
For the compound `COC=C(C(=O)OC)c1ccccc1CON=C(C)C(=NOC)c1ccc(OC)cc1C` (single isomer, unassigned) [Compound 1.78], the curative action result in series [2] is recorded as “complete curative action”.
Regarding `COC=C(C(=O)OC)c1ccccc1CON=C(C)C(=NOC)c1ccc(OCC2CC2(Cl)Cl)c(F)c1` (stereo not drawn) [Compound 1.3, (2-{2-[4-(2,2-Dichloro-cyclopropylmethoxy)-3-fluoro-phenyl]-2-methoxyimino-1-methyl-ethylideneaminooxymethyl}phenyl)-3-methoxy-acrylic acid methyl ester], the suppression of infestation result in series [1] is “completely suppressed”. The curative action entry in series [2] is “complete curative action”.
For `COC=C(C(=O)OC)c1ccccc1CON=C(C)C(=NOC)c1cc(F)c(OCC2CC2(Cl)Cl)cc1F` (stereo not drawn) [Compound 1.13, (2-{2-[4-(2,2-Dichloro-cyclopropylmethoxy)-2,5-difluoro-phenyl]-2-methoxyimino-1-methyl-ethylideneaminooxymethyl}-phenyl)-3-methoxy-acrylic acid methyl ester], the suppression of infestation result in series [1] was “completely suppressed”. In addition, the curative action result in series [2] is “complete curative action”.
On the same counts, the results for `COC=C(C(=O)OC)c1ccccc1CON=C(C)C(=NOC)c1ccc(OCC(C)C)cc1` [Compound 1.31, {2-[2-(4-Isobutoxy-phenyl)-2-methoxyimino-1-methyl-ethylideneaminooxymethyl]-phenyl}-3-methoxy-acrylic acid methyl ester] are “completely suppressed” and “complete curative action”.
As for `CCC(C)Oc1ccc(C(=NOC)C(C)=NOCc2ccccc2C(=NOC)C(=O)OC)cc1` (stereo not drawn) [Compound 2.21], in series [2], the curative action entry is “complete curative action”.
Consider `CON=C(C(C)=NOCc1ccccc1C(=NOC)C(=O)OC)c1ccc(OCC(C)C)cc1` [Compound 2.22], for which, in series [2], the curative action entry was “complete curative action”.
The same measure, in the same setting: the same measure for `CON=C(C(C)=NOCc1ccccc1C(=NOC)C(=O)OC)c1ccc(Oc2cccc(Br)c2)cc1` [Compound 2.25]: “complete curative action”.
As to `CON=C(C(C)=NOCc1ccccc1C(=NOC)C(=O)OC)c1ccc(Oc2ccc(C)cc2)cc1` [Compound 2.27], in series [1], the suppression of infestation result is listed as “completely suppressed”. Further, the curative action entry in series [2] is given as “complete curative action”.
Regarding `CON=C(C(C)=NOCc1ccccc1C(=NOC)C(=O)OC)c1cccc(Oc2cccc(F)c2)c1` [Compound 2.32], in series [1], the suppression of infestation entry is listed as “completely suppressed”.
Take `CON=C(C(C)=NOCc1ccccc1C(=NOC)C(=O)OC)c1ccc(OC[Si](C)(C)C)cc1` [Compound 2.33]: the curative action result in series [2] is recorded as “complete curative action”.
On the same count and under the same terms, the same measure for `CCCOc1ccc(C(=NOC)C(C)=NOCc2ccccc2C(=NOC)C(=O)OC)c(F)c1` [Compound 2.45, 2-Methoxyimino-(2-{2-methoxyimino-1-methyl-2-[2-fluoro-4-n-propoxy-phenyl]-ethylideneaminooxymethyl}-phenyl)-acetic acid methyl ester]: “complete curative action”; for `CCOc1ccc(C(=NOC)C(C)=NOCc2ccccc2C(=NOC)C(=O)OC)c(F)c1` [Compound 2.49, 2-Methoxyimino-(2-{2-methoxyimino-1-methyl-2-[2-fluoro-4-ethoxy-phenyl]-ethylideneaminooxymethyl}-phenyl)-acetic acid methyl ester]: “complete curative action”.
`CCC(C)Oc1ccc(C(=NOC)C(C)=NOCc2ccccc2C(=NOC)C(=O)OC)c(F)c1` (stereo not drawn) [Compound 2.55]: the suppression of infestation result in series [1] is reported as “completely suppressed”. Further, the curative action result in series [2] is given as “complete curative action”.
Consider `CON=C(C(C)=NOCc1ccccc1C(=NOC)C(=O)OC)c1ccc(OC)cc1C` [Compound 2.58], for which, in series [1], the suppression of infestation entry is recorded as “completely suppressed”. The curative action result in series [2] is listed as “complete curative action”.
As to `CCC(C)Oc1ccc(C(=NOC)C(C)=NOCc2ccccc2C(=NOC)C(=O)NC)cc1` (stereo not drawn) [Compound 3.21], the curative action result in series [2] is recorded as “complete curative action”.
Same read-out and setting: the same measure for `CNC(=O)C(=NOC)c1ccccc1CON=C(C)C(=NOC)c1ccc(OCC(F)(F)F)cc1` [Compound 3.43]: “complete curative action”; for `CCCOc1ccc(C(=NOC)C(C)=NOCc2ccccc2C(=NOC)C(=O)NC)c(F)c1` [Compound 3.46, 2-Methoxyimino-2-(2-{2-methoxyimino-1-methyl-2-[2-fluoro-4-n-propoxy-phenyl]-ethylideneaminooxymethyl}-phenyl)-N-methyl-acetamide]: “complete curative action”.
In the case of `CCC(C)Oc1ccc(C(=NOC)C(C)=NOCc2ccccc2C(=NOC)C(=O)NC)c(F)c1` (stereo not drawn) [Compound 3.56], in series [1], the suppression of infestation entry is given as “completely suppressed”. For the same compound, in series [2], the curative action result is “complete curative action”.
In the case of `CCOc1ccc(C(=NOC)C(C)=NOCc2ccccc2C(=NOC)C(=O)NC)c(C)c1` [Compound 3.60, 2-Methoxyimino-2-(2-{2-methoxyimino-1-methyl-2-[4-ethoxy-2-methyl-phenyl]-ethylideneaminooxymethyl}-phenyl)-N-methyl-acetamide], in series [1], the suppression of infestation entry is given as “completely suppressed”.
Take `COC=C(C(=O)OC)c1ccccc1CON=C(C)C(=NOCC=C(Cl)Cl)c1ccc(OC)cc1` [Compound 4.3]: in series [1], the suppression of infestation result is “completely suppressed”. In addition, the curative action result in series [2] is recorded as “complete curative action”.
Take `CCCOc1ccc(C(=NOCC)C(C)=NOCc2ccccc2C(=COC)C(=O)OC)cc1` [Compound 4.57]: the suppression of infestation entry in series [1] is “completely suppressed”. The curative action entry in series [2] was “complete curative action”.
On to `CCCOc1ccc(C(=NOCC)C(C)=NOCc2ccccc2C(=NOC)C(=O)OC)cc1` [Compound 4.58], for which the curative action result in series [2] was “complete curative action”.
`CCCON=C(C(C)=NOCc1ccccc1C(=COC)C(=O)OC)c1ccc(OCCC)cc1` [Compound 4.60]: the suppression of infestation entry in series [1] is “completely suppressed”. Moreover, the curative action result in series [2] was “complete curative action”.
In the case of `C#CCON=C(C(C)=NOCc1ccccc1C(=NOC)C(=O)NC)c1ccc(OCCC)cc1` [Compound 4.65], in series [2], the curative action result is “complete curative action”.

In general, melting point refers to the temperature of the solid-liquid transition.
